Results taken from patent US20240124410A1, “SMALL MOLECULES AND THEIR USE AS MALT1 INHIBITORS” (University of Pittsburgh - Of the Commonwealth System of …, priority 2021, published 2024).

Assays:
[1] = test system: IL-6 and IL-10 secretion in OCI-Ly3 cells; assay: IL-6 and IL-10 secretion by OCI-Ly3 cells (ELISA); format: cell-based, human
Description: Expression of cytokines from cell culture supernatants was measured 24h after treatment with 0, 0.01, 0.03, 0.1, 0.3, 1, or 3 uM of compounds using the following ELISA kits according to the manufacturer's instructions: Human IL-2 ELISA (BioLegend Cat #431804), Human IL-6 ELISA (BioLegend Cat #430504), and Human IL-10 ELISA (BioLegend Cat #430604).

[2] = test system: PMA/iono-induced transcription of interleukin 2 (IL-2); assay: IL-2 transcription in Jurkat T cells (quantitative RT-PCR); format: cell-based; details: compound at 1 μM
Description: The DLBCL cell lines, OCI-Ly1, OCI-Ly3, and OCI-Ly7, were provided by Dr. Mark Minden (University Health Network, Toronto, Ontario, Canada). TMD8 cells were provided by Dr. Louis Staudt (NCI, NIH). OCI-Ly1 and OCI-Ly7 cells were cultured in Iscove's Modified Dulbecco's Medium (IMDM) supplemented with 10% FBS. OCI-Ly3 cells were cultured in IMDM supplemented with 20% FBS. TMD8 and Jurkat T cells were cultured in RPMI1640 medium with 10% FBS. HEK293T cells were cultured in DMEM medium with 10% FBS. All media were supplemented with 100 U/ml penicillin streptomycin. Stimulation of Jurkat cells was conducted by adding 5 ng/ml of phorbol 12-myristatel3 acetate (PMA)(Sigma-Aldrich) and 1μM ionomycin (Calbiochem), or by adding 5-10 μL/mL of ImmunoCult Human CD3/CD28 ([…] Technologies).
Total RNA extraction was performed using RNeasy Plus Mini Kit (Qiagen Cat #74136). 1 ng RNA was transcribed into cDNA using High-Capacity cDNA Reverse Transcription Kit (Applied Biosystems Cat #4368814) according to manufacturer's instructions. RT-PCR reactions were performed using TaqMan gene expression probe sets.

Question: For `COc1ccc(CNS(=O)(=O)c2ccc(Cc3ccc(S(=O)(=O)NCc4ccc(OC)cc4)cc3)cc2)cc1` [M1i-124d1], which IL-6 secretion [1] is on record?
Answer: inhibit IL-6 and IL-10 secretion in a concentration-dependent manner

Question: And the IL-10 secretion [1]?
Answer: inhibit IL-6 and IL-10 secretion in a concentration-dependent manner

Question: And the “Transcription of interleukin 2 (IL-2)” value [2]?
Answer: inhibit
